Results as given in patent publication US10654872B1, “Polymorphs of dolutegravir and salts thereof” (Laurus Labs Limited, priority 2015, dated 2020).

Legend:
Assay type in all cases: physicochemical
[1] = Thermal stability of Form-L9 in oven at 60° C. and 100° C. (PXRD, DSC); conditions: for Form after heating, DSC / Form after heating, PXRD: 24 hrs
Method: Dolutegravir sodium Form-L9 was kept in an oven at 60° C. and 100° C. for 24 hrs.

[2] = Hygroscopic study at 85% relative humidity; conditions: room temperature, one week (24, 48, 72, 168 hours)
Method: Dolutegravir sodium Form-L9 was exposed to 85% relative humidity at room temperature for one week and was analyzed by PXRD at different time intervals such as 24 hours, 48 hours, 72 hours and 168 hours. […] The overlaid PXRD pattern of dolutegravir sodium Form-L9 subjected to hygroscopic study at 85% RH is represented as Figure-25.

[3] = Stability data of dolutegravir sodium Form-L9 stored at 40±2° C./75±5% RH
Method: Dolutegravir sodium Form-L9 was packed in a Low density polyethylene (LDPE) bag with a strip seal, which is again kept in a second low density polyethylene bag with strip seal. The LDPE bag is kept in a high density polyethylene (HDPE) container and well closed and loaded for stability chamber. […] The purity of dolutegravir sodium was analysed using high performance liquid chromatography (“HPLC”) with the conditions is tabulated below: [table]

[4] = Aqueous solubility at different pH buffers, UV quantification

Compound: C[C@@H]1CCO[C@H]2Cn3cc(C(=O)NCc4ccc(F)cc4F)c(=O)c(O)c3C(=O)N12 [Form-L9, dolutegravir sodium]
- Stability at elevated temperatures ([1]; 60° C. and 100° C. for 24 hours): stable even at elevated temperatures
- Form after heating, DSC ([1]; 60° C.): Form-L9
- Form after heating, PXRD ([1]; 60° C.): Form-L9
- Form after heating, DSC ([1]; 100° C.): Form-L9
- Form after heating, PXRD ([1]; 100° C.): Form-L9
- Polymorphic nature after thermal study (PXRD and DSC) ([1]; oven at 60° C. and 100° C. for 24 hrs): same polymorphic nature retained
- Polymorphic nature after hygroscopic study [2]: same polymorphic nature retained
- Des fluoro dolutegravir ([3]; 1 month): 0.08 % w/w
- PXRD (polymorphic form) ([3]; 1 month): Form-L9
- Purity by HPLC ([3]; 1 month): 99.9 % w/w
- Water content ([3]; 1 month): 1.9 % w/w
- Des fluoro dolutegravir ([3]; 2 month): 0.09 % w/w
- PXRD (polymorphic form) ([3]; 2 month): Form-L9
- Purity by HPLC ([3]; 2 month): 99.9 % w/w
- Water content ([3]; 2 month): 2 % w/w
- Des fluoro dolutegravir ([3]; 3 month): 0.10 % w/w
- PXRD (polymorphic form) ([3]; 3 month): Form-L9
- Purity by HPLC ([3]; 3 month): 99.8 % w/w
- Water content ([3]; 3 month): 2.3 % w/w
- Des fluoro dolutegravir ([3]; Initial): 0.09 % w/w
- PXRD (polymorphic form) ([3]; Initial): Form-L9
- Purity by HPLC ([3]; Initial): 99.8 % w/w
- Water content ([3]; Initial): 2.2 % w/w
- Polymorphic and chemical stability on storage ([3]; at least up to three months, LDPE bags in HDPE container): retained the same polymorphic and chemical identity
- Solubility profile versus dolutegravir sodium anhydrous form [4]: comparable
